Measurements taken from patent US20240092744A1, “TRICYCLIC COMPOUND, AND PREPARATION METHOD THEREFOR AND MEDICAL USE THEREOF” (THE NATIONAL INSTITUTES OF PHARMACEUTICAL R&D CO., LTD., priority 2020, published 2024).

Test: Determination of aldehyde capture rate (nonenal as model aldehyde, HPLC quantification)
Conditions: for Aldehyde consumption (100%): 0.05 mM compound, 0.025 mM nonenal, room temperature; for Capture rate (slope of the capture curve per unit time): higher absolute value of the slope = higher capture rate
Method: In the aldehyde capture test disclosed in the present invention, the stable lipid metabolite, nonenal, was used as the model aldehyde to react with the compound of the Example. The specific protocol was as follows.
0.05 mM of the compounds of the Examples of the present invention were precisely weighed respectively and dissolved in 1.2 mL of a mixed solution (v/v=1:1) of triolein (Aladdin, G105172-5g) and linoleic acid (Aladdin, L100442-25g), respectively. 2.5 mL of PBS (Solarbio, P1020) solution containing 20% Captisol® (Aladdin, Cl25030-25 g) was added, and the solution was stirred at room temperature overnight. After the example compound was completely dissolved, 0.025 mM nonenal (Sigma, 255653-5G) was added, and the solution was stirred vigorously at room temperature. […] The solution was mixed vigorously by vortex for 2 minutes, and centrifuged at a low speed of 1000 r/min for 3 minutes. The supernatant was transferred to an injection vial. The nonenal in the reaction mixture was analyzed quantitatively by high performance liquid chromatography. The adduct resulted from the example compound of the present invention and nonenal was analyzed qualitatively by high performance liquid chromatography-mass spectrometry.
Liquid Chromatograph: Waters I Class;
Column: ACQUITY UPLC HSS T3 1.8 μm;
Column temperature: 40° C.;
Liquid chromatography condition: mobile phase A: acetonitrile containing 0.1% formic acid; B: water containing 0.1% formic acid;
Injection volume: 0.5 mL.
Gradient of the mobile phases: […]
In the developed detection method, the retention time of the model aldehyde nonenal was 2.42 minutes. • Mass spectrometry conditions: • Mass spectrometer: Waters TQ-S micro • Ion source: ESI^+ • Capillary voltage: 0.5 kV • Cone voltage: 10V • Source temperature: 150° C. • Degassing temperature: 500° C., degassing flow: 1000 L/Hr • SIM mode • m/z: 225.24 [(mExample 1−OH)+H]^+, 365.42 [madduct 1+H]^+
The time-varying diagram of the capture reaction of the compounds of the examples of the present invention to nonenal is shown in FIG. 1.

CC(C)(O)c1cc2c(cc1N)Oc1nccnc1O2 [Example 23, 2-(8-Aminobenzo[5,6][1,4]dioxino[2,3-b]pyrazin-7-yl)propan-2-ol]
Aldehyde consumption (100%) (135 minutes): 16.24%
Capture rate (slope of the capture curve per unit time) (135 minutes): −0.12
Aldehyde consumption (100%) (180 minutes): 17.89%
Capture rate (slope of the capture curve per unit time) (180 minutes): −0.11

CC(C)(O)c1cc2c(cc1N)Oc1ccc(F)cc1O2 [Example 21]
Aldehyde consumption (100%) (135 minutes): 6.92%
Capture rate (slope of the capture curve per unit time) (135 minutes): −0.05
Aldehyde consumption (100%) (180 minutes): 10.06%
Capture rate (slope of the capture curve per unit time) (180 minutes): −0.05

CC(C)(O)c1cc2c(cc1N)C(C)(C)c1ccccc1-2 [Example 14, 2-(2-Amino-9,9-dimethyl-9H-fluoren-3-yl)propan-2-ol]
Aldehyde consumption (100%) (135 minutes): 36.30%
Capture rate (slope of the capture curve per unit time) (135 minutes): −0.19
Aldehyde consumption (100%) (180 minutes): 44.51%
Capture rate (slope of the capture curve per unit time) (180 minutes): −0.28

CN1c2ccccc2Oc2cc(N)c(C(C)(C)O)cc21 [Example 6, 2-(3-Amino-10-methyl-10H-phenoxazin-2-yl)propan-2-ol]
Aldehyde consumption (100%) (135 minutes): 5.40%
Capture rate (slope of the capture curve per unit time) (135 minutes): −0.08
Aldehyde consumption (100%) (180 minutes): 11.94%
Capture rate (slope of the capture curve per unit time) (180 minutes): −0.07

Cn1c2ccccc2c2nc(C(C)(C)O)c(N)cc21 [Example 11, 2-(3-Amino-5-methyl-5H-pyrido[3,2-b]indol-2-yl)propan-2-ol]
Aldehyde consumption (100%) (135 minutes): 7.71%
Capture rate (slope of the capture curve per unit time) (135 minutes): −0.06
Aldehyde consumption (100%) (180 minutes): 12.33%
Capture rate (slope of the capture curve per unit time) (180 minutes): −0.08

CC(C)(O)c1cc2c(cc1N)Oc1cc(F)ccc1O2 [Example 20]
Aldehyde consumption (100%) (135 minutes): 23.91%
Capture rate (slope of the capture curve per unit time) (135 minutes): −0.18
Aldehyde consumption (100%) (180 minutes): 25.45%
Capture rate (slope of the capture curve per unit time) (180 minutes): −0.14

CC(C)(O)c1cc2oc3ccccc3c2cc1N [Example 8, 2-(2-Aminodibenzo[b,d]furan-3-yl)propan-2-ol]
Aldehyde consumption (100%) (135 minutes): 8.30%
Capture rate (slope of the capture curve per unit time) (135 minutes): −0.22
Aldehyde consumption (100%) (180 minutes): 17.80%
Capture rate (slope of the capture curve per unit time) (180 minutes): −0.07

CC(C)(O)c1cc2c(cc1N)Oc1ncccc1O2 [Example 15, 2-(8-Aminobenzo[5,6][1,4]dioxino[2,3-b]pyridin-7-yl)propan-2-ol]
Aldehyde consumption (100%) (135 minutes): 23.50%
Capture rate (slope of the capture curve per unit time) (135 minutes): −0.15
Aldehyde consumption (100%) (180 minutes): 30.00%
Capture rate (slope of the capture curve per unit time) (180 minutes): −0.17

CC(C)(O)c1nc2oc3ccccc3c2cc1N [Example 1, 2-(3-Aminobenzofuro[2,3-b]pyridin-2-yl)propan-2-ol]
Aldehyde consumption (100%) (135 minutes): 24.57%
Capture rate (slope of the capture curve per unit time) (135 minutes): −0.13
Aldehyde consumption (100%) (180 minutes): 34.69%
Capture rate (slope of the capture curve per unit time) (180 minutes): −0.14

Cn1c2ccc(Cl)cc2c2cc(N)c(C(C)(C)O)nc21 [Example 13, 2-(3-Amino-6-chloro-9-methyl-9H-pyrido[2,3-b]indol-2-yl)propan-2-ol]
Aldehyde consumption (100%) (135 minutes): 6.03%
Capture rate (slope of the capture curve per unit time) (135 minutes): −0.12
Aldehyde consumption (100%) (180 minutes): 14.83%
Capture rate (slope of the capture curve per unit time) (180 minutes): −0.08

COC1c2ccccc2-c2cc(C(C)(C)O)c(N)cc21 (stereo not drawn) [Example 28, 2-(2-Amino-9-methoxy-9H-fluoren-3-yl)propan-2-ol]
Aldehyde consumption (100%) (135 minutes): 3.77%
Capture rate (slope of the capture curve per unit time) (135 minutes): −0.02
Aldehyde consumption (100%) (180 minutes): 4.37%
Capture rate (slope of the capture curve per unit time) (180 minutes): −0.03

CC(C)(O)c1cc2c(cc1N)Oc1cccnc1O2 [Example 19, 2-(7-Aminobenzo[5,6][1,4]dioxino[2,3-b]pyridin-8-yl)propan-2-ol]
Aldehyde consumption (100%) (135 minutes): 19.40%
Capture rate (slope of the capture curve per unit time) (135 minutes): −0.14
Aldehyde consumption (100%) (180 minutes): 36.90%
Capture rate (slope of the capture curve per unit time) (180 minutes): −0.25

CC(C)(O)c1nc2c(cc1N)oc1ccccc12 [Example 10, 2-(3-Aminobenzofuro[3,2-b]pyridin-2-yl)propan-2-ol]
Aldehyde consumption (100%) (135 minutes): 9.15%
Capture rate (slope of the capture curve per unit time) (135 minutes): −0.08
Aldehyde consumption (100%) (180 minutes): 9.48%
Capture rate (slope of the capture curve per unit time) (180 minutes): −0.06

CC(C)(O)c1cc2c(cc1N)Oc1cc(Cl)ccc1O2 [Example 25]
Aldehyde consumption (100%) (135 minutes): 4.87%
Capture rate (slope of the capture curve per unit time) (135 minutes): −0.03
Aldehyde consumption (100%) (180 minutes): 4.88%
Capture rate (slope of the capture curve per unit time) (180 minutes): −0.03

CC(C)(C)OC(=O)N1c2ccccc2Oc2cc(C(C)(C)O)c(N)cc21 [Example 29, tert-Butyl 2-amino-3-(2-hydroxypropan-2-yl)-10H-phenoxazine-10-carboxylate]
Aldehyde consumption (100%) (135 minutes): 6.52%
Capture rate (slope of the capture curve per unit time) (135 minutes): −0.04
Aldehyde consumption (100%) (180 minutes): 6.53%
Capture rate (slope of the capture curve per unit time) (180 minutes): −0.04

CC(C)(O)c1cc2c(cc1N)N(Cc1ccccc1)c1ccccc1O2 [Example 27, 2-(2-Amino-10-benzyl-10H-phenoxazin-3-yl)propan-2-ol]
Aldehyde consumption (100%) (135 minutes): 14.37%
Capture rate (slope of the capture curve per unit time) (135 minutes): −0.11
Aldehyde consumption (100%) (180 minutes): 17.87%
Capture rate (slope of the capture curve per unit time) (180 minutes): −0.10

Cn1c2ccccc2c2cc(N)c(C(C)(C)O)cc21 [Example 3, 2-(3-Amino-9-methyl-9H-carbazol-2-yl)propan-2-ol]
Aldehyde consumption (100%) (135 minutes): 0.11%
Capture rate (slope of the capture curve per unit time) (135 minutes): −0.01
Aldehyde consumption (100%) (180 minutes): 1.38%
Capture rate (slope of the capture curve per unit time) (180 minutes): −0.02

Cn1c2cc(Cl)ccc2c2cc(N)c(C(C)(C)O)nc21 [Example 12, 2-(3-Amino-7-chloro-9-methyl-9H-pyrido[2,3-b]indol-2-yl)propan-2-ol]
Aldehyde consumption (100%) (135 minutes): 17.18%
Capture rate (slope of the capture curve per unit time) (135 minutes): −0.24
Aldehyde consumption (100%) (180 minutes): 30.31%
Capture rate (slope of the capture curve per unit time) (180 minutes): −0.16

CN1c2ccccc2Oc2cc(C(C)(C)O)c(N)cc21 [Example 5, 2-(2-Amino-10-methyl-10H-phenoxazin-3-yl)propan-2-ol]
Aldehyde consumption (100%) (135 minutes): 15.06%
Capture rate (slope of the capture curve per unit time) (135 minutes): −0.14
Aldehyde consumption (100%) (180 minutes): 19.05%
Capture rate (slope of the capture curve per unit time) (180 minutes): −0.10

CC(C)(O)c1nc2c(cc1N)Oc1ccccc1O2 [Example 9, 2-(3-Aminobenzo[5,6][1,4]dioxino[2,3-b]pyridin-2-yl)propan-2-ol]
Aldehyde consumption (100%) (135 minutes): 0.10%
Capture rate (slope of the capture curve per unit time) (135 minutes): −0.01
Aldehyde consumption (100%) (180 minutes): 0.10%
Capture rate (slope of the capture curve per unit time) (180 minutes): −0.04

CC(C)(O)c1cc2c(cc1N)Oc1ccc(Cl)cc1O2 [Example 26]
Aldehyde consumption (100%) (135 minutes): 2.02%
Capture rate (slope of the capture curve per unit time) (135 minutes): −0.02
Aldehyde consumption (100%) (180 minutes): 5.34%
Capture rate (slope of the capture curve per unit time) (180 minutes): −0.03
